Structures are written as SMILES. Entries after “also recorded” stand apart in the source; their conditions may differ.

Series [1] deals with HaCaT cells. The series can be described thus: Intracellular ROS (DCFDA), UV-C-induced or endogenous. The series is classed as cell-based, human. The procedure: (§1) Two approaches were used for intracellular ROS induction. The first approach involved pretreatment of HaCaT cells with RSV, RF, CRC, and CF and, after overnight incubation, treatment with 50 μM tBHP (tert-butyl hydroperoxide). The second approach included pretreatment of the cells with CRC and CF, and after overnight incubation, exposure of the cells to UV (ultraviolet)-C light (15 W; 55 V; 254 nm; PURITEC HNS Linear Lamps, HNS 15 W G13, Osram GmbH, Munich, Germany) for 3 h. In brief, HaCaT cells were seeded at a concentration of 2.5 × 10^5 cells mL^−1 in black 96-well plates (100 µL/well) in growth medium and supplemented with RSV, RF, CRC, and CF at concentrations 2.5–50 μM. The DCFDA/H2DCFDA (2′,7′-dichlorofluorescin diacetate/2′,7′-dichlorodihydrofluorescein diacetate) assay was performed according to the manufacturer’s protocol with minor modifications (Cellular ROS Assay Kit Cat. No. ab113851, Abcam, Cambridge, UK). The intracellular ROS level was determined by measuring the fluorescence intensity (λex/em = 485/535 nm; Cary Eclipse spectrofluorimeter). Cells treated with the same volume of DMSO or EtOH in which RSV, RF, CRC, and CF were dissolved, and cells treated with 50 µM tBHP served as controls. In UV experiments, cells treated with the solvent (DMSO) and exposed to UVR (ultraviolet radiation) were considered as control samples. For each concentration tested, 3–8 independent biological samples were analyzed.

Series [2] relates to HaCaT cells. The series can be described thus: Apoptosis/necrosis by Muse Annexin V & Dead Cell Kit (flow cytometry). The format is cell-based, human. Particulars: 48 h. The procedure: (§2) The Muse™ Annexin V & Dead Cell Kit (Cat. No. MCH100105, Millipore, Merck Darmstadt, Germany) was used to determine the percentage of HaCaT cells in four different cell populations (live, early apoptotic, late apoptotic, and dead) after treatment of cells with RSV, RF, CRC, and CF (5–100 μM; for 48 h) according to the manufacturer’s protocol. A detailed protocol was elucidated in Murati et al.. The cells were analyzed using the Muse™ Cell Analyzer (Luminex, Austin, TX, USA). For each concentration tested, 3–7 independent biological samples were analyzed.
On the technique in general: A flow cytometer gives signals particle by particle.

The subject of series [3] is HaCaT cells. The series is described as follows: Intracellular ROS (DCFDA) induced by tert-butyl hydroperoxide. The series is classed as cell-based, human. Particulars: then 50 µM tBHP; for doses with statistically significant (p < 0.05) lowering of ROS levels: HaCaT pretreated overnight; for effect on ROS induced by tBHP: HaCaT pretreated with 2.5–50 µM. The procedure:
as §1

The subject of series [4] is HaCaT cells. The series can be described thus: Cell viability by MTT assay. The note with it: 48 h; for IC20 / IC50 / IC80: MTT method. The series is classed as cell-based, human. The procedure: (§3) The adherent HaCaT cell line was obtained from Cytion, Eppelheim, Germany. The HaCaT cell line was routinely grown in Dulbecco’s Modified Eagle Medium supplemented with 10% (v/v) fetal bovine serum (atmosphere of 95% air and 5% CO2 at 37 °C), obtained from Sigma-Aldrich Co., St. Louis, MO, USA. No antibiotics were used throughout the experiments. Cells were harvested with trypsin/EDTA solution (Sigma-Aldrich Co.) after reaching >70% confluence, diluted to the required density, and seeded in multiwell plates (Nunc, Roskilde, Denmark), depending on the experiments performed.
(§4) The cytotoxicity endpoints were determined by MTT (3-(4,5-dimethyl-2-thiazolyl)-2,5-diphenyl-2H-tetrazolium bromide) assay and Trypan blue method. For the MTT assay, cells were seeded in 96-well transparent flat-bottomed polystyrene plates at an initial concentration of 2.5 × 10^5 cells mL^−1 (100 μL/well) in growth medium supplemented with RSV, RF, CRC, and CF at concentrations of 5–100 μM. Concentrations were chosen based on our previously conducted research—reported cytotoxicity thresholds in HaCaT and other cell lines. RF and CF were synthesized in the Laboratory for Organic Chemistry at the University of Zagreb Faculty of Food Technology and Biotechnology, Zagreb, Croatia, while RSV and CRC were purchased from Sigma-Aldrich. After 48 h of incubation at 37 °C, cell viability was determined using the MTT assay. The absorbance was measured at 540 nm (Cary Eclipse spectrofluorimeter, Varian, Palo Alto, CA, USA). For the Trypan blue method, the cells were seeded in 6-well plates at an initial concentration of 2 × 10^4 cells mL^−1 (4 mL/well). After overnight incubation at 37 °C, the cells were treated with RSV, RF, CRC, and CF at different concentrations (5–100 μM). Cell viability was determined 48 h after treatment using the Trypan blue method. The stock solution of RSV was prepared in EtOH, while CRC and ferrocenyl analogues require DMSO due to higher lipophilicity. All stock solutions were stored at −20 °C until use. […] Cell viability is expressed as the percentage of treated cells compared to control cells. For each concentration tested, 3–15 independent biological samples were analyzed.

Series [5] relates to HaCaT cells. The series can be described thus: Cell proliferation/viability by Trypan Blue exclusion method. The format is cell-based, human. Particulars: 48 h; for antiproliferative activity compared to RSV or CRC-treated cells: 5–100 µM. The procedure: as §3, §4
The test system of series [6] is HaCaT cells. The series is described as follows: Autophagy by Muse Autophagy LC3-antibody based kit (flow cytometry). The series is classed as cell-based, human. The note with it: 48 h; for order of the autophagy induction ratio (from highest to lowest): 100 µM. On the procedure: The Muse™ Autophagy LC3-antibody based kit (Cat. No. MCH200109, Millipore) was used to determine the induction of autophagy in HaCaT cells after treatment with RSV, RF, CRC, and CF (5–100 μM) with some minor protocol modifications. The experimental procedure for both analyses was set up as for cell viability determination by the Trypan blue method. Autophagy induction data were read based on the fluorescence intensity of the sample (using Muse™ Cell Analyzer). For each concentration tested, 3–8 independent biological samples were analyzed.

Series [7] can be described thus: Apoptosis/necrosis by Muse Annexin V & Dead Cell Kit (flow cytometry). Particulars: human, HaCaT cells, highest concentration (100 µM), read-out: viability (live cells). The series is classed as cell-based, human. On the procedure:
as §2

The subject of series [8] is DNA. Details: method as in PMID 21388716. The note with it: cited from earlier work.
Series [9] concerns DNA. Details: method as in PMID 21388716. The note with it: cited from earlier work. This is another data set of the same source.
Setting [10] is: value outside the range of the tested doses (>100 µM).
[11] abbreviates: HaCaT, Trypan Blue method, from dose–response curves.
Setting [12] is: Homo sapiens, from dose–response curves.
Where [13] appears, read: Homo sapiens, HaCaT, Trypan Blue method, from dose–response curves.

Broadly, the IC20 is the concentration at which the effect reaches the 20% level. Higher therefore signals a need for much substance. The term IC50 denotes the concentration that inhibits the measured activity by half. Low readings indicate higher potency, high ones lower potency. Broadly, the IC80 is the point of the concentration-response curve where the effect stands at 80%. Low values mean greater potency, high ones weaker potency. As to `COc1cc(/C=C/C(=O)CC(=O)[c-]2cccc2)ccc1O.[Fe+2].c1cc[cH-]c1` [CF, (E)-5-(4-hydroxy-3-methoxyphenyl)-1-ferrocenylpent-4-ene-1,3-dione], in [1] (HaCaT pretreated with 2.5–50 µM, UV-C 3 h), the “effect on UV-induced ROS” value is recorded as “did not exhibit significant antioxidant activity”. Further, the “effect on cell death / viability by flow cytometry” value in series [2] (5–100 µM) is listed as “induced cell death significantly less compared to all compounds tested; also recorded: almost no effect on cell viability”. In series [3], the “doses with statistically significant (p < 0.05) lowering of ROS levels” value is recorded as at least 5 µM and the “effect on ROS induced by tBHP” value is listed as “most pronounced effect; also recorded: significantly reduced the ROS induced by tBHP”. In series [4] (setting [10]), this molecule registered an IC20 of 121 µM, an IC50 of 208 µM and an IC80 of 273 µM. In addition, in series [5] (Trypan Blue), the “antiproliferative activity compared to RSV or CRC-treated cells” value is reported as “significantly lower antiproliferative activity”. This molecule also showed an IC20 in series [5] (setting [11]) of 75.4 µM. Besides, the “order of the autophagy induction ratio (from highest to lowest)” value (from here on “order of the autophagy induction ratio”) in series [6] is on record as “CRC > CF > RF ≈ RSV”. Also, in series [6] (5–100 µM), the “effect on autophagy induction” value is given as “reduced autophagic degradation activity; also recorded: decrease in the autophagy induction ratio”.
Usually viability stands for the share of living cells, or the viability signal relative to a control. On to `COc1cc(/C=C/C(=O)CC(=O)/C=C/c2ccc(O)c(OC)c2)ccc1O` [CRC, (1E,6E)-1,7-bis(4-hydroxy-3-methoxyphenyl)-1,6-heptadiene-3,5-dione], for which, in series [1] (HaCaT pretreated overnight, UV-C 3 h), the “doses with protective effect against UV-induced ROS” value is recorded as at least 20 µM. Moreover, the “doses significantly (p < 0.05) reducing endogenous ROS production” value in series [1] (HaCaT, without UV exposure) is given as at least 20 µM. Besides, the viability at 48 h, 100 µM in [7] amounted to 1.08%. For the same molecule, the “proportion of cells in early and late apoptosis” value in [2] (100 µM) was determined as 88.40%. For the same molecule, in series [2] (highest concentration (100 µM)), the “proportion of cells in late apoptosis” value amounted to 88.34% and the “proportion of cells in necrosis” value stood at 10.52%. Moreover, in [3], the “doses with statistically significant (p < 0.05) lowering of ROS levels” value was at least 5 µM and the “effect on ROS induced by tBHP” value was “most pronounced effect”. In series [4] (MTT), the “doses at which cell viability was almost completely impaired” value is recorded as at least 50 µM. Besides, in [4] (MTT, vs solvent control), the “concentrations with statistically significant (p < 0.05) cytotoxicity” value is reported as at least 20 µM. For the same molecule, in series [4] (setting [12]), it took 7.28 µM to reach the 20% level (IC20), half-maximal inhibition (IC50) was put at 18.9 µM and it took 34 µM to reach the 80% level (IC80). Further, in series [5] (HaCaT, Trypan Blue), the “doses at which cell viability was almost completely impaired” value is recorded as at least 50 µM. Besides, in [5] (setting [13]), the midpoint of inhibition, the IC50, lay at 11 µM and the IC80 worked out at 26.4 µM. Besides, in [6] (100 µM (highest dose)), the “effect on autophagy induction” value was “highest autophagy induction ratio; also recorded: most prominent autophagy induction ratio”. Moreover, the “order of the autophagy induction ratio” value in series [6] is recorded as “CRC > CF > RF ≈ RSV”.
For the molecule `COc1cc(C=CC(=O)C(=C[c-]2cccc2)C(=O)C=Cc2ccc(O)c(OC)c2)ccc1O.[Fe+2].c1cc[cH-]c1` [FCU, 1,7-bis(p-hydroxy-m-methoxyphenyl)-4-ferrocenylidene-hepta-1,6-diene-3,5-dione], the “inhibition of AAPH-induced oxidation of DNA” value (shortened to “inhibition”) in [8] is “in higher extent than CRC, feruloylacetone, and dehydrozingerone”. Further, the “effect on Cu2+/GSH-induced oxidation of DNA” value (from here on “effect … of DNA”) in series [9] is listed as “protective effects”.
For `COc1cc(C=CC(=O)C=C[c-]2cccc2)ccc1O.[Fe+2].c1cc[cH-]c1` [FDZ, 1-(p-hydroxy-m-methoxyphenyl)-5-ferrocenyl-penta-1,4-dien-3-one], the “inhibition” value in [8] was “in higher extent than CRC, feruloylacetone, and dehydrozingerone”. In [9], the “effect … of DNA” value is listed as “protective effects”.
Regarding `COc1cc(C=CC(O)=CC(=O)C=C[c-]2cccc2)ccc1O.[Fe+2].c1cc[cH-]c1` [FFT, 1-(p-hydroxy-m-methoxyphenyl)-3-hydroxy-7-ferrocenyl-hepta-1,4,6-trien-5-one], the “inhibition” value in series [8] was “in higher extent than CRC, feruloylacetone, and dehydrozingerone”. In addition, the “effect … of DNA” value in series [9] is on record as “protective effects”.
Consider `O=C(CCC[c-]1cccc1)Oc1ccc(/C=C/c2cc(OC(=O)CCC[c-]3cccc3)cc(OC(=O)CCC[c-]3cccc3)c2)cc1.[Fe+2].[Fe+2].[Fe+2].c1cc[cH-]c1.c1cc[cH-]c1.c1cc[cH-]c1` [RF, trans-3,5,4′-tri(4-ferrocenylbutanoyloxy)-stilbene], for which, in series [2], the “doses after which the majority of cells remained in the early apoptosis fraction” value was at least 5 µM. Moreover, the “effect on ROS induced by tBHP” value in series [3] is recorded as “significantly reduced the ROS induced by tBHP”. In addition, the “antiproliferative activity compared to RSV or CRC-treated cells” value in [5] (Trypan Blue) is on record as “significantly lower antiproliferative activity”. For the same molecule, the IC20 in [5] (setting [11]) came to 10.8 µM. Further, the “effect on autophagy induction” value was “slightly induced autophagy” in series [6] (5 µM) and “lower autophagy-related LC3 protein” in series [6] (100 µM (highest dose)). The “order of the autophagy induction ratio” value in series [6] is “CRC > CF > RF ≈ RSV”.
For `Oc1ccc(/C=C/c2cc(O)cc(O)c2)cc1` [RSV, 3,4′,5-trihydroxy-trans-stilbene], the “level of cell death through necrotic or apoptotic pathways” value in series [2] (100 µM) is listed as at most 11%. Further, the “cell survival (proportion of viable cells in the culture) vs control” value in series [2] (100 µM, p < 0.05) is reported as “significantly lower”. Moreover, in [5] (setting [13]), the IC20 amounted to 3.22 µM and the midpoint of inhibition, the IC50, lay at 40.3 µM. For the same molecule, the “effect on autophagy induction” value in series [6] (20 µM, p < 0.05) was “stimulating”. Besides, in [6] (100 µM (highest dose)), the “effect on autophagy induction” value is “reducing”. Besides, the “order of the autophagy induction ratio” value in series [6] is listed as “CRC > CF > RF ≈ RSV”.
